# According to ChEMBL document CHEMBL4765442, “Anti-Giardia Drug Discovery: Current Status and Gut Feelings” (J Med Chem, 2020):
# Key:
# [1] = system: Giardia intestinalis; test: Antigiardial activity against metronidazole-resistant Giardia duodenalis WB-M3; type: functional
# [2] = system: Giardia intestinalis; test: Antigiardial activity against metronidazole-resistant Giardia duodenalis 106-2ID10; type: functional
# [3] = system: Giardia intestinalis; test: Antigiardial activity against metronidazole-resistant Giardia duodenalis 713-M3; type: functional
# [4] = system: Giardia intestinalis; test: Antigiardial activity against Giardia intestinalis IMSS:0696:1 incubated for 48 hrs followed by wash out by hemocytometric counting method; type: functional, organism-based; conditions: Giardia duodenalis, IMSS:0696:1, 48 h
# [5] = system: Giardia intestinalis; test: Antigiardial activity against Giardia intestinalis WB ATCC 30957 incubated for 72 hrs by hemocytometric counting method; type: functional, organism-based; conditions: Giardia duodenalis, WB ATCC 30957, 72 h
# [6] = system: Giardia intestinalis; test: Antigiardial activity against metronidazole-resistant Giardia lamblia 713-M3 incubated for 48 hrs; type: functional, organism-based; conditions: Giardia duodenalis, 713-M3, 48 h
# [7] = system: Giardia intestinalis; test: Antigiardial activity against Giardia lamblia WBC6 incubated for 48 hrs; type: functional, organism-based; conditions: Giardia duodenalis, WBC6, 48 h
# [8] = system: Giardia intestinalis; test: Antigiardial activity against Giardia lamblia 713 incubated for 48 hrs; type: functional, organism-based; conditions: Giardia duodenalis, 713, 48 h
# [9] = system: Giardia intestinalis; test: Growth inhibition of Giardia duodenalis isolate 14-03/F7 measured after 24 hrs by resazurin based assay; type: functional, organism-based; conditions: isolate 14-03/F7, 24 h
# [10] = system: Giardia intestinalis; test: Antigiardial activity against Giardia duodenalis BRIS/91/HEPU/1279 incubated for 3 days followed by compound wash-out and measured after 4 days; type: functional; conditions: time 3 day
# [11] = system: Giardia intestinalis; test: Antigiardial activity against Giardia duodenalis BRIS/83/HEPU/106 incubated for 3 days followed by compound wash-out and measured after 4 days; type: functional; conditions: time 3 day
# [12] = system: Giardia intestinalis; test: Antigiardial activity against metronidazole-resistant Giardia duodenalis BRIS/83/HEPU/106-2ID10 incubated for 3 days followed by compound wash-out and measured after 4 days; type: functional; conditions: time 3 day
# [13] = system: Giardia intestinalis; test: Antigiardial activity against metronidazole-resistant Giardia duodenalis WB1B-M3 incubated for 3 days followed by compound wash-out and measured after 4 days; type: functional; conditions: time 3 day
# [14] = system: Giardia intestinalis; test: Antigiardial activity against Giardia lamblia WB incubated for 48 hrs by haemocytometric counting method; type: functional; conditions: Giardia duodenalis, read-out: LD50 (the source's name)
# [15] = system: Giardia intestinalis; test: Antigiardial activity against drug susceptible Giardia lamblia incubated for 48 hrs by haemocytometric counting method; type: functional; conditions: Giardia duodenalis, read-out: LD50 (the source's name)
# [16] = system: Giardia intestinalis; test: Antigiardial activity against nitazoxanide resistant Giardia lamblia N1-INP incubated for 48 hrs by haemocytometric counting method; type: functional; conditions: Giardia duodenalis, read-out: LD50 (the source's name)
# [17] = system: Giardia intestinalis; test: Antigiardial activity against Giardia duodenalis WBC6 trophozoites incubated for 72 hrs under anaerobic condition by resazurin-dye based fluorimetry; type: functional, organism-based; conditions: WBC6, 72 h
# [18] = system: Giardia intestinalis; test: Antigiardial activity against Giardia duodenalis WBC6 trophozoites incubated for 48 hrs under microaerophilic condition by methylene blue colorimetric assay; type: functional, organism-based; conditions: WBC6, 48 h
structure (smiles),measurement,setting,value
Cc1ccc(C(Br)C(Br)c2ncc([N+](=O)[O-])n2C)cc1 (stereo not drawn),MIC,[1],5 µM
same,MIC,[2],5 µM
same,MIC,[3],10 µM
Cn1c(-c2ccc3c(c2)OCO3)cnc1/C=C/c1ncc([N+](=O)[O-])n1C,MIC,[1],1 µM
same,MIC,[2],1 µM
same,MIC,[3],0.5 µM
Cc1ncc([N+](=O)[O-])n1CCOC(=O)Nc1ccc([N+](=O)[O-])cc1,IC50,[4],500 nM
Cc1ncc([N+](=O)[O-])n1CC(C)OC(=O)Nc1ccc([N+](=O)[O-])cc1 (stereo not drawn),IC50,[4],500 nM
Cc1ncc([N+](=O)[O-])n1CCN1CCN(c2ccnc3cc(Cl)ccc23)CC1,IC50,[5],970 nM
CCOc1ccc2cc(-c3nc(C(C)(C)C)n4ccnc(N)c34)ccc2c1,EC50,[6],600 nM
same,EC50,[7],600 nM
same,EC50,[8],1200 nM
Cc1ncc([N+](=O)[O-])n1CC(C)OC(=O)Nc1ccccc1 (stereo not drawn),IC50,[4],500 nM
CCCCCCCCCCC[C@@H](C[C@@H]1OC(=O)[C@H]1CCCCCC)OC(=O)[C@H](CC(C)C)NC=O [ORLISTAT],IC50,[9],2800 nM
CN1CC/C(=C\c2ncc([N+](=O)[O-])n2C)C1=O,MLC,[10],1 µM
same,MLC,[11],1 µM
same,MLC,[12],5 µM
same,MLC,[13],10 µM
Cc1ncc([N+](=O)[O-])n1CC(C)OC(=O)NC1CCCCC1 (stereo not drawn),IC50,[4],500 nM
Cc1ncc([N+](=O)[O-])n1CC(C)O (stereo not drawn) [SECNIDAZOLE],IC50,[4],4100 nM
Cc1ncc([N+](=O)[O-])n1CCNC(=O)/C=C/c1ccc([N+](=O)[O-])o1,IC50,[5],5600 nM
Cc1ncc([N+](=O)[O-])n1CCOC(=O)NC1CCCCC1,IC50,[4],500 nM
COc1ccc2[nH]c([S+]([O-])Cc3ncc(C)c(OC)c3C)nc2c1 (stereo not drawn) [OMEPRAZOLE],LC50,[14],116 nM
same,LC50,[15],116 nM
same,LC50,[16],544 nM
O=[N+]([O-])c1ccc(SCCCCCCO)c2nonc12,IC50,[17],600 nM
same,IC50,[18],300 nM
Cc1ncc([N+](=O)[O-])n1CCOC(=O)Nc1ccc(Cl)cc1,IC50,[4],500 nM
